# Laboratory results published in US11071730B2, “Substituted 6-azabenzimidazole compounds” (Gilead Sciences, Inc., priority 2018, dated 2021).
# Target: human HPK1 (MAP4K1) (Homo sapiens (Human), UniProt Q92918)
# Assay: HPK1 IC50 Assay (TR-FRET biochemical kinase assay, STK S1 peptide substrate)
# Settings: recombinant human HPK1 kinase domain 0.15 nM, 10 μM ATP, 1 μM STK S1 peptide; geometric mean
# Experimental: The enzymatic activity of human HPK1 (MAP4K1) was monitored in a biochemical assay in the presence or absence of compounds and using a synthetic peptide substrate. An increase in phosphorylation of the peptide by HPK1 was indicative of its kinase activity.
# Recombinant HPK1 kinase domain produced via baculovirus infection of insect cells was obtained from Proteros (Proteros Biostructures #PR-0322) and was pre-activated in the presence of 2 mM ATP (Sigma-Aldrich, cat #GE27-2056-01) and 2 mM magnesium chloride for 16 hours at 4° C. The protein reaction mixture was then loaded to a desalting column (Thermo Fisher Scientific, Cat #89889) to remove excess ATP. HPK1 was eluted with buffer containing 20 mM Tris (2-Amino-2-(hydroxymethyl)propane-1,3-diol) pH 8.0, 150 mM NaCl, 2 mM dithiothreitol and 5% glycerol, and was frozen at −80° C. for later use.
# Ten nanoliters of test compounds dissolved in DMSO at various concentrations were dispensed into a 384-well ProxiPlate (PerkinElmer #6008289). Five microliters of a solution of recombinant HPK1 diluted in HPK1 kinase assay buffer (50 mM BES [N,N-Bis(2-hydroxyethyl)-2-aminoethanesulfonic acid], pH 7.0; 10 mM magnesium chloride; 0.01% Triton X-100; 1 mM dithiothreitol; 0.01% bovine serum albumin; 0.1 mM sodium orthovanadate) was added to the compound-containing plate and was incubated for 15 minutes at 25° C. Five microliters of a mixture of ATP (Sigma-Aldrich #A6559) and peptide substrate STK S1 (Cisbio #61ST1BLC) diluted in HPK1 kinase assay buffer was then added to start the reaction. Final concentrations were 0.15 nM for HPK1, 10 μM for ATP, and 1 μM for the STK S1 peptide substrate. The reaction mixture was incubated at 25° C. for 3 hours and was stopped with the addition of 10 μl of an EDTA (Ethylenediaminetetraacetic acid)-containing detection buffer (Cisbio #62SDBRDF) supplemented with Europium cryptate-labeled anti-phospho-serine/threonine antibodies (Cisbio #62ST1PEJ) and XL665-labeled streptavidin (Cisbio #610SAXLG). The mixture was incubated for 16 hours at room temperature and peptide phosphorylation was measured by time-resolved fluorescence energy transfer (665 nm/620 nm) on an Envision plate reader (PerkinElmer).
# Data in Table 1 were normalized based on positive (staurosporine) and negative (DMSO) controls. Least squares curve fittings were performed using a four-parameter variable slope nonlinear regression model. IC50 is defined as the concentration of compound required to inhibit 50% of maximum phosphorylation. IC50 values from multiple experiments were averaged by geometric mean and the standard deviation was calculated.
# Sequence of human HPK1 (MAP4K1) (Q92918 17-274): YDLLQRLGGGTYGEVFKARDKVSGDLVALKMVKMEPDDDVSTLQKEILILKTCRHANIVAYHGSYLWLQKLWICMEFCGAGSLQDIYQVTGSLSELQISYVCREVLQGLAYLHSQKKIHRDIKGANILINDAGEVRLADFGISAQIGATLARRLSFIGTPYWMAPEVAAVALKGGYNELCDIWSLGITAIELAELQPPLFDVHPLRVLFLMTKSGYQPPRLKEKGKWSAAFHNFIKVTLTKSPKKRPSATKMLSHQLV
row,IC50,SMILES
1,1.4 nM,CNC(=O)c1ccc(F)c(Nc2nc(-c3ccc4c(c3)N([C@H]3C[C@@H](N5CCCCC5)C3)C(=O)C4(C)C)cc3ncn(C(C)C)c23)n1 [Example 104]
2,1.6 nM,CC(=O)N1CCC2(CC1)C(=O)N([C@H]1C[C@@H](N3CCCCC3)C1)c1cc(-c3cc4ncn(C(C)C)c4c(Nc4cc(N(C)C)ncc4F)n3)ccc12 [Example 99]
3,0.3 nM,CC(C)n1cnc2cc(-c3ccc4c(c3)N([C@H]3C[C@@H](N5CCCCC5)C3)C(=O)C43CCN(C(=O)C4(C#N)CC4)CC3)nc(Nc3ccncc3F)c21 [Example 142]
4,0.2 nM,CC(C)n1cnc2cc(-c3ccc4c(c3)N([C@H]3C[C@@H](N5CCCCC5)C3)C(=O)C43CCN(C(=O)C(C)(C)CO)CC3)nc(Nc3ccnc(F)c3F)c21 [Example 103]
5,0.2 nM,CC(=O)N1CCC2(CC1)C(=O)N([C@H]1C[C@@H](N3CC4CC4(C)C3)C1)c1cc(-c3cc4ncn(C(C)C)c4c(Nc4ccncc4F)n3)ccc12 (stereo partly drawn) [Example 187]
6,0.3 nM,CC(C)n1cnc2cc(-c3ccc4c(c3)N([C@H]3C[C@@H](N5CCC(C)(C)C5)C3)C(=O)C43CCN(C(=O)c4ccon4)CC3)nc(Nc3ccncc3F)c21 [Example 155]
7,0.3 nM,CC(C)n1cnc2cc(-c3ccc4c(c3)N([C@H]3C[C@@H](N5CCCCC5)C3)C(=O)C4(C)O)nc(Nc3ccnc(F)c3F)c21 (stereo partly drawn) [Example 101]
8,0.3 nM,CC(=O)N1CCC2(CC1)C(=O)N([C@H]1C[C@@H](N3CCCC4(CCC4)C3)C1)c1cc(-c3cc4ncn(C(C)C)c4c(Nc4ccncc4F)n3)ccc12 [Example 182]
9,0.08 nM,CC(C)n1cnc2cc(-c3ccc4c(c3)N([C@H]3C[C@@H](N5CCC(C)(C)C5)C3)C(=O)C43CCN(C(=O)C(C)(C)CO)CC3)nc(Nc3ccc(F)nc3F)c21 [Example 164]
10,0.08 nM,CC(C)n1cnc2cc(-c3ccc4c(c3)N([C@H]3C[C@@H](N5C[C@H]6CC[C@H]6C5)C3)C(=O)C43CCN(C(=O)C(C)(C)CO)CC3)nc(Nc3ccncc3F)c21 [Example 112]
11,0.4 nM,COC(C)(C)C(=O)N1CCC2(CC1)C(=O)N([C@H]1C[C@@H](N3CCCCC3)C1)c1cc(-c3cc4ncn(C(C)C)c4c(Nc4ccncc4F)n3)ccc12 [Example 145]
12,0.3 nM,CC(C)n1cnc2cc(-c3ccc4c(c3)N([C@H]3C[C@@H](N5CCCCC5)C3)C(=O)C43CCN(C(=O)[C@@H]4CCC[C@@H]4O)CC3)nc(Nc3ccncc3F)c21 [Example 109]
13,0.4 nM,CC(C)n1cnc2cc(-c3ccc4c(c3)N([C@H]3C[C@@H](N5CCC(C)(C)C5)C3)C(=O)C43CCN(C(=O)c4cnnn4C)CC3)nc(Nc3ccncc3F)c21 [Example 161]
14,0.8 nM,CC(=O)N1CCC2(CC1)C(=O)N([C@H]1C[C@@H](N3CCC4(CC4)C3)C1)c1cc(-c3cc4ncn(C(C)C)c4c(Nc4ccncc4F)n3)ccc12 [Example 178]
15,0.4 nM,CC(C)n1cnc2cc(-c3ccc4c(c3)N([C@H]3C[C@@H](N5CCC(C)(C)C5)C3)C(=O)C43CCN(C(=O)c4ncon4)CC3)nc(Nc3ccncc3F)c21 [Example 160]
16,0.2 nM,CC(C)[C@@H](O)C(=O)N1CCC2(CC1)C(=O)N([C@H]1C[C@@H](N3CCC(C)(C)C3)C1)c1cc(-c3cc4ncn(C(C)C)c4c(Nc4ccncc4F)n3)ccc12 [Example 118]
17,0.4 nM,CC(C)n1cnc2cc(-c3ccc4c(c3)N([C@H]3C[C@@H](N5CCC(C)(C)C5)C3)C(=O)C43CCN(C(=O)C4(CO)CC4)CC3)nc(Nc3ccncc3F)c21 [Example 135]

row,SMILES,IC50
1,CCn1cnc2cc(-c3ccc4c(c3)N([C@H]3C[C@@H](N5CCCCC5)C3)C(=O)C43CCN(C4COC4)CC3)nc(Nc3ccncc3F)c21 [Example 175],0.8 nM

# Same assay, conditions: recombinant human HPK1 kinase domain 0.15 nM, 10 μM ATP, 1 μM STK S1 peptide; geometric mean of multiple experiments
row,IC50,SMILES
1,0.1 nM,CC(=O)N1CCC2(CC1)C(=O)N([C@H]1C[C@@H](N3CCCCC3)C1)c1cc(-c3cc4ncn(C(C)C)c4c(Nc4ccc(F)nc4F)n3)ccc12 [Example 70]
2,0.05 nM,"CC(C)n1cnc2cc(-c3ccc4c(c3)N([C@H]3C[C@@H](N5CCC(C)(C)C5)C3)C(=O)C43CCN(C(=O)[C@@H]4CC[C@H](C)O4)CC3)nc(Nc3ccncc3F)c21 [Example 20B, 1-((1s,3R)-3-(3,3-dimethylpyrrolidin-1-yl)cyclobutyl)-6-(4-((3-fluoropyridin-4-yl)amino)-3-isopropyl-3H-imidazo[4,5-c]pyridin-6-yl)-1′-((2S,5 S)-5-methyltetrahydrofuran-2-carbonyl)spiro[indoline-3,4′-piperidin]-2-one]"
3,0.1 nM,CC(C)n1cnc2cc(-c3ccc4c(c3)N([C@H]3C[C@@H](N5CCC(C)(C)C5)C3)C(=O)C43CCN(C(=O)C4(C)CCO4)CC3)nc(Nc3ccncc3F)c21 (stereo partly drawn) [Example 12]
4,0.4 nM,CC(C)n1cnc2cc(-c3ccc4c(c3)N([C@H]3C[C@@H](N5CCC(C)(C)C5)C3)C(=O)C43CCN(C(=O)C4(C)COC4)CC3)nc(Nc3ccncc3F)c21 [Example 77]
5,0.4 nM,CC(C)n1cnc2cc(-c3ccc4c(c3)N([C@H]3C[C@@H](N5CCC(C)(C)C5)C3)C(=O)C43CCN(C(=O)CC4COC4)CC3)nc(Nc3ccncc3F)c21 [Example 21]
6,0.2 nM,"CC(C)n1cnc2cc(-c3ccc4c(c3)N([C@H]3C[C@@H](N5CCC(C)(C)C5)C3)C(=O)C43CCN(C(=O)[C@@H]4OCC[C@@H]4C)CC3)nc(Nc3ccncc3F)c21 [Example 19A, 1-((1s,3S)-3-(3,3-dimethylpyrrolidin-1-yl)cyclobutyl)-6-(4-((3-fluoropyridin-4-yl)amino)-3-isopropyl-3H-imidazo[4,5-c]pyridin-6-yl)-1′-((2R,3S)-3-methyltetrahydrofuran-2-carbonyl)spiro[indoline-3,4′-piperidin]-2-one]"
7,2.1 nM,Cc1cc(Nc2nc(-c3ccc4c(c3)N([C@H]3C[C@@H](NCC(C)(C)O)C3)C(=O)C4(C)C)cc3ncn(C(C)C)c23)c(F)cn1 [Example 53]
8,0.1 nM,"CC(C)n1cnc2cc(-c3ccc4c(c3)N([C@H]3C[C@@H](N5CCC(C)(C)C5)C3)C(=O)C43CCN(C(=O)[C@H]4CC[C@@H](C)O4)CC3)nc(Nc3ccncc3F)c21 [Example 20A, 1-((1s,3S)-3-(3,3-dimethylpyrrolidin-1-yl)cyclobutyl)-6-(4-((3-fluoropyridin-4-yl)amino)-3-isopropyl-3H-imidazo[4,5-c]pyridin-6-yl)-1′-((2R,5R)-5-methyltetrahydrofuran-2-carbonyl)spiro[indoline-3,4′-piperidin]-2-one]"
9,0.2 nM,CCn1cnc2cc(-c3ccc4c(c3)N([C@H]3C[C@@H](N5CCCCC5)C3)C(=O)C43CCN(C(=O)[C@@H](C)O)CC3)nc(Nc3ccc(F)nc3F)c21 [Example 73]

row,SMILES,IC50
1,"CC(C)n1cnc2cc(-c3ccc4c(c3)N([C@H]3C[C@@H](N5CCCCC5)C3)C(=O)C43CCN(C4COC4)CC3)nc(Nc3ccnc(F)c3F)c21 [Example 91, 6-(4-((2,3-difluoropyridin-4-yl)amino)-3-isopropyl-3H-imidazo[4,5-c]pyridin-6-yl)-1′-(oxetan-3-yl)-1-((1s,3s)-3-(piperidin-1-yl)cyclobutyl)spiro[indoline-3,4′-piperidin]-2-one]",0.2 nM
2,CC(C)n1cnc2cc(-c3ccc4c(c3)N([C@H]3C[C@@H](N5CCC(C)(C)C5)C3)C(=O)C43CCN(C4COC4)CC3)nc(Nc3ccnc(F)c3F)c21 [Example 93],0.2 nM
3,CC(C)n1cnc2cc(-c3ccc4c(c3)N([C@H]3C[C@@H](N5CCCC(C)(F)C5)C3)C(=O)C43CCN(C4COC4)CC3)nc(Nc3ccncc3F)c21 (stereo partly drawn) [Example 80],0.4 nM
